The test deals with T1, human OX2R (Homo sapiens, UniProt O43614).
T1 construct: expressed in transfected cells; host or cells: CHO (Chinese hamster ovary) cells, grown under G418 selection
T1 sequence (O43614 1-444): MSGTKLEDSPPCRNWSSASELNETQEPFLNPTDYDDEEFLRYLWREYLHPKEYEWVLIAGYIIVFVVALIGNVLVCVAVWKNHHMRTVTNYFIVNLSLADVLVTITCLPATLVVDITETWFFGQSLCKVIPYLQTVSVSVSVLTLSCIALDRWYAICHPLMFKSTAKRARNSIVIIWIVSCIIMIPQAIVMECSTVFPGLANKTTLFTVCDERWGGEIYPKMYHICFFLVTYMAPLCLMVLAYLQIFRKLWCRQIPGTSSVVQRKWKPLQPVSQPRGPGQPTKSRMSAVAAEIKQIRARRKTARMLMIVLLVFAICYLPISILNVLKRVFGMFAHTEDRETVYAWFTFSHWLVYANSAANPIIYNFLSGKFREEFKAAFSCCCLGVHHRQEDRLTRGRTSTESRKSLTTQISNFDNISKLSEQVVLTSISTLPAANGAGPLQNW
Nature of the test: IPOne (IP-1) orexin receptor agonist assay in CHO cells expressing human OX2R. The class given is cell-based. Particulars: IPOne assay, CHO cells expressing human OX2R, 2 hours incubation; read-out: hoX2R_IP IC50. The source says: The utility of the compounds in accordance with the present invention as orexin receptor OX1R and/or OX2R agonists may be readily determined without undue experimentation by methodology well known in the art. Both the OX1R and/or OX2R G-coupled protein receptors (GPCRs) couple through the Gaq signaling pathway, which ultimately promotes calcium mobilization via inositol triphosphate (IP3) production. The half-life of IP-3 is relatively short, being rapidly metabolized to inositol monophosphate (IP-1), which can be readily detected using a commercially available assay kit (IP-One; Cisbio; cat #621PAPEC) coupled with a cell line expressing the target receptor(s) of interest. The utility of the compounds in accordance with the present invention as orexin receptor OX1R and/or OX2R agonists may be determined utilizing this assay.
In a typical experiment, the OX1 and OX2 receptor agonist activity is determined in accordance with the following general experimental method. Chinese hamster ovary (CHO) cells expressing human OX1R and/or the human OX2R were grown in Iscove's modified DMEM containing glutaMAX™, 1% G418, 100 U/mL penicillin, 100 μg/mL streptomycin and 10% heat-inactivated qualified fetal bovine serum (FBS). The OX2R cells were seeded at 10,000 cells/well/50 μL and the OX1R cells were seeded at 20,000 cells/well/50 μL into 384-well white tissue culture plates (Greiner; cat #781080). All cell/media reagents were from GIBCO-Invitrogen Corp. The seeded cell plate(s) were incubated at 37° C. with 5% CO2 and 85% humidity for 20-24 hours. On the day of the assay, assay-ready compound plates were prepared using an acoustic liquid handler (ECHO; Labcyte), which dispensed sufficient volume of test compound stock (10 mM in DMSO) or 100% DMSO to prepare 10 point, ½-log dilutions in a final volume of 202.5 nL/well in all test wells of a 384-well diamond plate (Labcyte). Following completion of assay-ready plates, importantly, the next three steps were performed with minimal delay: 1) 20 μl of 1×stimulation buffer was added to the compound plate using a Multidrop Combi (small cassette, Thermo Fisher Scientific cat #24073290); 2) culture medium was removed from the cell plate using the Bluewasher plate washer (gentle spin; BlueCatBio); 3) 14 μl of compound/stimulation buffer mixture was added to the cell plate using a Bravo liquid handler (Agilent) prior to incubating cell plates at 37° C. with 5% CO2 and 85% humidity for 1 or 2 hours (OX1R and OX2R, respectively). During this incubation, IP-one detection reagents were prepared (38:1:1 lysis buffer:D2:AB-cryptate reagents). Six μL of mixed detection reagents were added to the cell plate using a Multidrop Combi (small cassette, Thermo Fisher Scientific cat #24073290) and incubated 60 minutes at room temperature in the dark. Fluorescence signal was detected using an Envision plate reader (Perkin Elmer) [LANCE/DELFIA Dual Enh (Em: APC 665; Ex: Cy5 620)].
For each compound, data were fit to a four parameter logistic fit (ActivityBase software) and the EC50 was reported as the inflection point of the resulting curve. Percent effect for each test compound was determined as the percentage of sample raw value/mean max effect, where the mean max effect was derived from the mean raw value of 32 control wells per assay plate (using Orexin A (cat #003-30) at 1 μM for human OX1R and a reference compound at 1 uM with 100% activity previously established by comparison to Orexin A for human OX2R). The intrinsic orexin receptor agonist activity of a compound which may be used in the present invention may be determined by these assays.
For `COC(=O)N1[C@H](C)C[C@H](NS(=O)(=O)N(C)C)[C@@H]1COC1CCC2(c3cnccn3)CC2C1` (stereo partly drawn) [Example 13, methyl (2R,3S,5R)-3-((N,N-dimethylsulfamoyl)amino)-5-methyl-2-(((6-(pyrazin-2-yl)bicyclo[4.1.0]heptan-3-yl)oxy)methyl)pyrrolidine-1-carboxylate], the IC50 turned out to be 461 nM.
As for `COC(=O)N1[C@H](C)C[C@H](NS(=O)(=O)C(F)(F)F)[C@@H]1CO[C@H]1CC[C@@]2(c3ncc(F)cn3)C[C@H]2C1` [Example 31, methyl (2R,3S,5R)-2-((((1S,3S,6R)-6-(5-fluoropyrimidin-2-yl)bicyclo[4.1.0]heptan-3-yl)oxy)methyl)-5-methyl-3-((trifluoromethyl)sulfonamido)pyrrolidine-1-carboxylate], the half-maximal inhibitory concentration (IC50) turned out to be 3 nM.
As for `CCCS(=O)(=O)N[C@H]1C[C@@H](C)N(C(=O)OC)[C@H]1CO[C@H]1CC[C@@]2(c3ncc(F)cn3)C[C@H]2C1` [Example 33, methyl (2R,3S,5R)-2-((((1S,3S,6R)-6-(5-fluoropyrimidin-2-yl)bicyclo[4.1.0]heptan-3-yl)oxy)methyl)-5-methyl-3-(propylsulfonamido)pyrrolidine-1-carboxylate], the IC50 was found to be 5.4 nM.
`COC(=O)N1[C@H](C)C[C@H](NS(=O)(=O)Cc2ccccc2)[C@@H]1CO[C@H]1CC[C@@]2(c3ncc(F)cn3)C[C@H]2C1` [Example 34, methyl (2R,3S,5R)-2-((((1S,3S,6R)-6-(5-fluoropyrimidin-2-yl)bicyclo[4.1.0]heptan-3-yl)oxy)methyl)-5-methyl-3-((phenylmethyl)sulfonamido)pyrrolidine-1-carboxylate]: the 50% inhibitory concentration (IC50) was determined as 34.4 nM.
As for `COC(=O)N1[C@H](C)C[C@H](NS(=O)(=O)CC(C)C)[C@@H]1CO[C@H]1CC[C@@]2(c3ncc(F)cn3)C[C@H]2C1` [Example 35, methyl (2R,3S,5R)-2-((((1S,3S,6R)-6-(5-fluoropyrimidin-2-yl)bicyclo[4.1.0]heptan-3-yl)oxy)methyl)-5-methyl-3-((2-methylpropyl)sulfonamido)pyrrolidine-1-carboxylate], the IC50 stood at 46.5 nM.
Then `CCS(=O)(=O)N[C@H]1C[C@@H](C)N(C(=O)OC)[C@H]1CO[C@H]1CC[C@@]2(c3ncc(F)cn3)C[C@H]2C1` [Example 36, methyl (2R,3S,5R)-3-(ethylsulfonamido)-2-((((1S,3S,6R)-6-(5-fluoropyrimidin-2-yl)bicyclo[4.1.0]heptan-3-yl)oxy)methyl)-5-methylpyrrolidine-1-carboxylate], with 0.93 nM; and `COC(=O)N1[C@H](C)C[C@H](NS(=O)(=O)CCl)[C@@H]1CO[C@H]1CC[C@@]2(c3ncc(F)cn3)C[C@H]2C1` [Example 37, methyl (2R,3S,5R)-3-((chloromethyl)sulfonamido)-2-((((1S,3S,6R)-6-(5-fluoropyrimidin-2-yl)bicyclo[4.1.0]heptan-3-yl)oxy)methyl)-5-methylpyrrolidine-1-carboxylate], with 2.1 nM.
As for `COC(=O)N1[C@H](C)C[C@H](NS(=O)(=O)C(C)C)[C@@H]1CO[C@H]1CC[C@@]2(c3ncc(F)cn3)C[C@H]2C1` [Example 38, methyl (2R,3S,5R)-2-((((1S,3S,6R)-6-(5-fluoropyrimidin-2-yl)bicyclo[4.1.0]heptan-3-yl)oxy)methyl)-5-methyl-3-((1-methylethyl)sulfonamido)pyrrolidine-1-carboxylate], the IC50 was 0.9 nM.
The same measure for `COC(=O)N1[C@H](C)C[C@H](NS(=O)(=O)N2CCC2)[C@@H]1CO[C@H]1CC[C@@]2(c3ncc(F)cn3)C[C@H]2C1` [Example 39, methyl (2R,3S,5R)-3-(azetidine-1-sulfonamido)-2-((((1S,3S,6R)-6-(5-fluoropyrimidin-2-yl)bicyclo[4.1.0]heptan-3-yl)oxy)methyl)-5-methylpyrrolidine-1-carboxylate]: 2 nM; for `COC(=O)N1[C@H](C)C[C@H](NS(=O)(=O)C2COC2)[C@@H]1CO[C@H]1CC[C@@]2(c3ncc(F)cn3)C[C@H]2C1` [Example 40, methyl (2R,3S,5R)-2-((((1S,3S,6R)-6-(5-fluoropyrimidin-2-yl)bicyclo[4.1.0]heptan-3-yl)oxy)methyl)-5-methyl-3-(oxetane-3-sulfonamido)pyrrolidine-1-carboxylate]: 4.4 nM.
Then `CCC(C)S(=O)(=O)N[C@H]1C[C@@H](C)N(C(=O)OC)[C@H]1CO[C@H]1CC[C@@]2(c3ncc(F)cn3)C[C@H]2C1` (stereo partly drawn) [Example 41, methyl (2R,3S,5R)-2-((((1S,3S,6R)-6-(5-fluoropyrimidin-2-yl)bicyclo[4.1.0]heptan-3-yl)oxy)methyl)-5-methyl-3-((1-methylpropyl)sulfonamido)pyrrolidine-1-carboxylate], with 8 nM; and `COC(=O)N1[C@H](C)C[C@H](NS(=O)(=O)C2CC2)[C@@H]1CO[C@H]1CC[C@@]2(c3ncc(F)cn3)C[C@H]2C1` [Example 42, methyl (2R,3S,5R)-3-(cyclopropanesulfonamido)-2-((((1S,3S,6R)-6-(5-fluoropyrimidin-2-yl)bicyclo[4.1.0]heptan-3-yl)oxy)methyl)-5-methylpyrrolidine-1-carboxylate], with 3 nM.
Take `COC(=O)N1[C@H](C)C[C@H](NS(=O)(=O)N2CCC2)[C@@H]1CO[C@@H]1CC[C@]2(c3ncc(F)cn3)C[C@@H]2C1` [Example 43, methyl (2R,3S,5R)-3-(azetidine-1-sulfonamido)-2-((((1R,3R,6S)-6-(5-fluoropyrimidin-2-yl)bicyclo[4.1.0]heptan-3-yl)oxy)methyl)-5-methylpyrrolidine-1-carboxylate]: the IC50 was determined as 49.3 nM.
The same measure for `COC(=O)N1[C@H](C)C[C@H](NS(=O)(=O)C(F)(F)F)[C@@H]1CO[C@@H]1CC[C@]2(c3ncc(F)cn3)C[C@@H]2C1` [Example 44, methyl (2R,3S,5R)-2-((((1R,3R,6S)-6-(5-fluoropyrimidin-2-yl)bicyclo[4.1.0]heptan-3-yl)oxy)methyl)-5-methyl-3-((trifluoromethyl)sulfonamido)pyrrolidine-1-carboxylate]: 17.4 nM.
As to `COC(=O)N1[C@H](C)C[C@H](NS(=O)(=O)Cc2ccccc2)[C@@H]1CO[C@@H]1CC[C@]2(c3ncc(F)cn3)C[C@@H]2C1` [Example 45, methyl (2R,3S,5R)-2-((((1R,3R,6S)-6-(5-fluoropyrimidin-2-yl)bicyclo[4.1.0]heptan-3-yl)oxy)methyl)-5-methyl-3-((phenylmethyl)sulfonamido)pyrrolidine-1-carboxylate], the IC50 was found to be 173 nM.
As for `COC(=O)N1[C@H](C)C[C@H](NS(=O)(=O)C(C)C)[C@@H]1CO[C@@H]1CC[C@]2(c3ncc(F)cn3)C[C@@H]2C1` [Example 46, methyl (2R,3S,5R)-2-((((1R,3R,6S)-6-(5-fluoropyrimidin-2-yl)bicyclo[4.1.0]heptan-3-yl)oxy)methyl)-5-methyl-3-((1-methylethyl)sulfonamido)pyrrolidine-1-carboxylate], the 50% inhibitory concentration (IC50) came out at 13.4 nM.
